Activity calls are given as the source filed them. The calls are words filed in the database; no cut-off is given here.
Key:
U-937 = test: cells; format: functional; details: Homo sapiens, U-937, 72 h
Description: Cytotoxicity against FLT3-deficient human U937 cells assessed as cell growth inhibition after 72 hrs by MTS assay

[1] = tested on: Receptor-type tyrosine-protein kinase FLT3 (Homo sapiens), P36888 [D835F]
[2] = tested on: Tyrosine-protein kinase ABL1 (Homo sapiens), P00519 [T315I]; test: Inhibition of human ABL1 T315I mutant at 0.1 uM relative to control
[3] = target: Hepatocyte growth factor receptor (Homo sapiens) (UniProt P08581); test: Inhibition of human MET at 0.1 uM relative to control
[4] = target: Tyrosine-protein kinase ABL1 (Homo sapiens) (UniProt P00519); test: Inhibition of human ABL1 at 0.1 uM relative to control
[5] = target: Fibroblast growth factor receptor 1 (Homo sapiens) (UniProt P11362); test: Inhibition of human FGFR1 at 0.1 uM relative to control
[6] = target: Platelet-derived growth factor receptor alpha (Homo sapiens) (UniProt P16234); test: Inhibition of human PDGFRalpha at 0.1 uM relative to control
[7] = tested on: Receptor-type tyrosine-protein kinase FLT3 (Homo sapiens), P36888 [F691L]
[8] = target: Serine/threonine-protein kinase MRCK alpha (Homo sapiens) (UniProt Q5VT25); test: Inhibition of human MRCKA at 0.1 uM relative to control
[9] = tested on: Receptor-type tyrosine-protein kinase FLT3 (Homo sapiens), P36888 [D835V]
[10] = target: Receptor-type tyrosine-protein kinase FLT3 (Homo sapiens) (UniProt P36888); details: RS4:11 cell
Description: Inhibition of wild type homozygous FLT3 in human RS4:11 cells assessed as cell growth inhibition after 72 hrs by MTS assay

[11] = Volume of distribution at steady state in Sprague-Dawley rat at 2 mg/kg, iv; format: ADME, organism-based; details: in vivo, read-out: Vdss
[12] = target: Vascular endothelial growth factor receptor 3 (Homo sapiens) (UniProt P35916); test: Inhibition of human FLT4 at 0.1 uM relative to control
[13] = Cmax in Sprague-Dawley rat at 10 mg/kg, po; format: ADME, organism-based; parameters: dose 10 mg/kg, route oral; details: in vivo
[14] = target: Receptor-type tyrosine-protein kinase FLT3 (Homo sapiens, UniProt P36888, D835Y); test: Inhibition of FLT3 ITD D835Y mutant (unknown origin) phosphorylation expressed in HEK293T cells preincubated for 1 hr followed by FLT3 ligand addition for 5 mins by Western blot analysis; format: cell-based, HEK-293T
[15] = target: Serine/threonine-protein kinase mTOR (Homo sapiens) (UniProt P42345); test: Inhibition of human mTOR at 0.1 uM relative to control
[16] = target: High affinity nerve growth factor receptor (Homo sapiens) (UniProt P04629); test: Inhibition of human NTRK1 at 0.1 uM relative to control
[17] = target: Mitogen-activated protein kinase 8 (Homo sapiens) (UniProt P45983); test: Inhibition of human MAPK8 at 0.1 uM relative to control
[18] = target: Tyrosine-protein kinase Lyn (Homo sapiens) (UniProt P07948); test: Inhibition of human LYNA at 0.1 uM relative to control
[19] = target: Dual specificity protein kinase CLK2 (Homo sapiens) (UniProt P49760); test: Inhibition of human CLK2 at 0.1 uM relative to control
[20] = target: Ribosomal protein S6 kinase alpha-2 (Homo sapiens) (UniProt Q15349); test: Inhibition of human RSK3 at 0.1 uM relative to control
[21] = target: Glycogen synthase kinase-3 alpha (Homo sapiens) (UniProt P49840); test: Inhibition of human GSK3A at 0.1 uM relative to control
[22] = target: Aurora kinase A (Homo sapiens) (UniProt O14965); test: Inhibition of human AURKA at 0.1 uM relative to control
[23] = target: T1, Receptor-type tyrosine-protein kinase FLT3 (Homo sapiens, UniProt P36888); test: Inhibition of wild type FLT3 (unknown origin) phosphorylation expressed in HEK293T cells preincubated for 1 hr followed by FLT3 ligand addition for 5 mins by Western blot analysis; format: cell-based, HEK-293T
T1 sequence (P36888 whole entry): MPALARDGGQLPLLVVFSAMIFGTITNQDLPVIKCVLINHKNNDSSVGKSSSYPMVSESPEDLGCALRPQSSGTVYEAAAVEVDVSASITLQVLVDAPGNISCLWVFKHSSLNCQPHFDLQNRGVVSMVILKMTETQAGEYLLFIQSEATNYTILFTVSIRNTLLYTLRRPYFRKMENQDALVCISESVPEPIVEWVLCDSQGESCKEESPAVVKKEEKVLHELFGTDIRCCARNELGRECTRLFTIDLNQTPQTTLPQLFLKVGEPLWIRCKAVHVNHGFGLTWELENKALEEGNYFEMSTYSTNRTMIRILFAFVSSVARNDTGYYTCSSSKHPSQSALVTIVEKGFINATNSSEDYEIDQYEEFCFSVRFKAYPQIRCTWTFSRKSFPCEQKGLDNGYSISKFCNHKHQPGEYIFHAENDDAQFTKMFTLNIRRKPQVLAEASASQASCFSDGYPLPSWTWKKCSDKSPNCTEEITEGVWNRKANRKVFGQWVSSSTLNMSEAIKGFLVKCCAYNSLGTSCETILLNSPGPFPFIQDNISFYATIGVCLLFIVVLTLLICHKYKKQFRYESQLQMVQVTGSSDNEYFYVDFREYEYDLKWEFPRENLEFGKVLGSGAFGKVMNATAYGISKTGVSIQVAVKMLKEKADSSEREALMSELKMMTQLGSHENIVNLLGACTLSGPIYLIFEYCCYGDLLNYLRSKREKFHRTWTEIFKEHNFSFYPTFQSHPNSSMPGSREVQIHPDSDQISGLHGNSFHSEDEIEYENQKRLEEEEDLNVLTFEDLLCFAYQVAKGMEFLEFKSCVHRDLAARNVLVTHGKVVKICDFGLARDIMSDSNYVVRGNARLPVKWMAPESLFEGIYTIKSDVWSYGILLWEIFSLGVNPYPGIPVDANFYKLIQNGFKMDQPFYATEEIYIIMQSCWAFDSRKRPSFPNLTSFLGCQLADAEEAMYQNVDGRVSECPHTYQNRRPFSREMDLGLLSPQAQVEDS

[24] = Volume of distribution at steady state in ICR mouse at 2 mg/kg, iv; format: ADME, organism-based; details: in vivo, read-out: Vdss
animal or person = details: Mus musculus, 32D, po, read-out: TGI
MV4-11 = test: Antitumor activity against human MV4-11 cells xenografted in nude mouse assessed as tumor growth inhibition at 25 mg/kg, po qd administered on day 8 to 12 measured during compound dosing; format: functional, organism-based
[25] = Plasma clearance in ICR mouse at 2 mg/kg, iv; format: ADME, organism-based
[26] = target: Dual specificity mitogen-activated protein kinase kinase 1 (Homo sapiens) (UniProt Q02750); test: Inhibition of human MEK1 at 0.1 uM relative to control
Chain of Dual specificity mitogen-activated protein kinase kinase 1 (Homo sapiens) (Q02750 whole entry): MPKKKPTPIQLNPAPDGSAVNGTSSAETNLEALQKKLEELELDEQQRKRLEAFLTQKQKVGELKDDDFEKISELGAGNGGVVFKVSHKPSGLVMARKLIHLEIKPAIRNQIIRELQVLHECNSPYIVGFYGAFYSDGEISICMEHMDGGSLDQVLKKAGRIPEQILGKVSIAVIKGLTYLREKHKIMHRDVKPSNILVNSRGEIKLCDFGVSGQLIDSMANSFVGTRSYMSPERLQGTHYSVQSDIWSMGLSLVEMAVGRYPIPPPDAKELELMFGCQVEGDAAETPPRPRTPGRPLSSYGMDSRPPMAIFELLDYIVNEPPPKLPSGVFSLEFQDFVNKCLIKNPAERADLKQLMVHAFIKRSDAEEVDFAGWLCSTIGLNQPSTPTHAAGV

Chain of Serine/threonine-protein kinase MRCK alpha (Homo sapiens) (Q5VT25 whole entry): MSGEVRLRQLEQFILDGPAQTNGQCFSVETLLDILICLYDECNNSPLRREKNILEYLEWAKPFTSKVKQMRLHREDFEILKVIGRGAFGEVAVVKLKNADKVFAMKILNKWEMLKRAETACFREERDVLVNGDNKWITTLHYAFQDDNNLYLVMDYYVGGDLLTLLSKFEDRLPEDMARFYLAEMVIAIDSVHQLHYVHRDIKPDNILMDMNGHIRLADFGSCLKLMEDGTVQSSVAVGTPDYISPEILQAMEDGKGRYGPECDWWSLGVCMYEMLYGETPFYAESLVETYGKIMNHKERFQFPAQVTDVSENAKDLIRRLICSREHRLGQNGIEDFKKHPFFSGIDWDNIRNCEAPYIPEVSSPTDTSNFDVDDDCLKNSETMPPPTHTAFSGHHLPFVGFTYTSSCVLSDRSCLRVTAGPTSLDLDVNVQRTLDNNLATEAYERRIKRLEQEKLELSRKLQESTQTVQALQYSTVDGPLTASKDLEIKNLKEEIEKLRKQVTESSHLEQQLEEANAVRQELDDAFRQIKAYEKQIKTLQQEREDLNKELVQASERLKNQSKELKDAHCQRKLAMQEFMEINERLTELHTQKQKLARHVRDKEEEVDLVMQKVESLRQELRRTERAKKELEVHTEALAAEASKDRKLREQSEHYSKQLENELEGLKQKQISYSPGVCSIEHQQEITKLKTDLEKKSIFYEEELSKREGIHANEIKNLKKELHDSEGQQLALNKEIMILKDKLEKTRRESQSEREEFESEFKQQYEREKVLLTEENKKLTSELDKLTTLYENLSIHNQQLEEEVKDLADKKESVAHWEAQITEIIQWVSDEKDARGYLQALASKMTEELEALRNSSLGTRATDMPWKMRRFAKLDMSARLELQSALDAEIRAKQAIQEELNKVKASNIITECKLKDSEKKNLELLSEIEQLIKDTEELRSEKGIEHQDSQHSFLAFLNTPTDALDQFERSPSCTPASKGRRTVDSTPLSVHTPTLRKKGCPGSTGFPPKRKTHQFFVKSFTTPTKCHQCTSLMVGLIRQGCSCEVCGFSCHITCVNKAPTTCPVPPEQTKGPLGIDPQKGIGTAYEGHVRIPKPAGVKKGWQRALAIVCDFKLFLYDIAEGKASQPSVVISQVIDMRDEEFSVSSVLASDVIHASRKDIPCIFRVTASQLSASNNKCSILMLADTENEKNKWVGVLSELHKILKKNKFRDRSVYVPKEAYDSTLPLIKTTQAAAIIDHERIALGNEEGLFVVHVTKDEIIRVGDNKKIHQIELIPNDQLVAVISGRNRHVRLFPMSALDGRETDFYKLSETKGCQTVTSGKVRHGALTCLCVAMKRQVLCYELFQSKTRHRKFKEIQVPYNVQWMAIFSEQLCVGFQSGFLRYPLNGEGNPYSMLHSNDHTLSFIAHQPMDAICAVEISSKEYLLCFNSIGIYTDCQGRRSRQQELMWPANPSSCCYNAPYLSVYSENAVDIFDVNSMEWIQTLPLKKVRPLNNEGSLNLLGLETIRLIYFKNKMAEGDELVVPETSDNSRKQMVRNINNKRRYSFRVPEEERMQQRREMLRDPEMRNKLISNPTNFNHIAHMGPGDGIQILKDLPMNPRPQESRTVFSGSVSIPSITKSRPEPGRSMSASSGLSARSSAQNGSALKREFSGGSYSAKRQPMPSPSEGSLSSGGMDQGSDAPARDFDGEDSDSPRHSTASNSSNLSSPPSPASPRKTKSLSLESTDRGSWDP
Chain of Ribosomal protein S6 kinase alpha-2 (Homo sapiens) (Q15349 whole entry): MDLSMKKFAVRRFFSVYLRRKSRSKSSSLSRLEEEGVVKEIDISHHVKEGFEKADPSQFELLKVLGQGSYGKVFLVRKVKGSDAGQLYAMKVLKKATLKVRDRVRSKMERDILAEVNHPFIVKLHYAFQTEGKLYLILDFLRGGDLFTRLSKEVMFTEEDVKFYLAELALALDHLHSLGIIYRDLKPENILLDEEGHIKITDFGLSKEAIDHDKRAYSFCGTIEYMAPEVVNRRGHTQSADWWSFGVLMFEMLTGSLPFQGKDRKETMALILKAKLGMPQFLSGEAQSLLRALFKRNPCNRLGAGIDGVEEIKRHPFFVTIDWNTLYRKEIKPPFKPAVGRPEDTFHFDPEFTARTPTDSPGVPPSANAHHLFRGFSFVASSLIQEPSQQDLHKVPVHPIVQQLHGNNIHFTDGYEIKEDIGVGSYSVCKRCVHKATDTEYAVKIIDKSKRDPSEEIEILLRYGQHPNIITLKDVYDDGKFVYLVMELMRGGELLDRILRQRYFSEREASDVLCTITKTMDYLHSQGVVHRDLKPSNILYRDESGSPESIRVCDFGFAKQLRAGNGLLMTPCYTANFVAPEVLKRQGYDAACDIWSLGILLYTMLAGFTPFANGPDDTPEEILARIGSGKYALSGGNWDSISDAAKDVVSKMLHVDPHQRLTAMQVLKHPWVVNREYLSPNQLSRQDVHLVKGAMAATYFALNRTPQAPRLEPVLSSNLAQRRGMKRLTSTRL
Chain of High affinity nerve growth factor receptor (Homo sapiens) (P04629 33-796 limits assumed): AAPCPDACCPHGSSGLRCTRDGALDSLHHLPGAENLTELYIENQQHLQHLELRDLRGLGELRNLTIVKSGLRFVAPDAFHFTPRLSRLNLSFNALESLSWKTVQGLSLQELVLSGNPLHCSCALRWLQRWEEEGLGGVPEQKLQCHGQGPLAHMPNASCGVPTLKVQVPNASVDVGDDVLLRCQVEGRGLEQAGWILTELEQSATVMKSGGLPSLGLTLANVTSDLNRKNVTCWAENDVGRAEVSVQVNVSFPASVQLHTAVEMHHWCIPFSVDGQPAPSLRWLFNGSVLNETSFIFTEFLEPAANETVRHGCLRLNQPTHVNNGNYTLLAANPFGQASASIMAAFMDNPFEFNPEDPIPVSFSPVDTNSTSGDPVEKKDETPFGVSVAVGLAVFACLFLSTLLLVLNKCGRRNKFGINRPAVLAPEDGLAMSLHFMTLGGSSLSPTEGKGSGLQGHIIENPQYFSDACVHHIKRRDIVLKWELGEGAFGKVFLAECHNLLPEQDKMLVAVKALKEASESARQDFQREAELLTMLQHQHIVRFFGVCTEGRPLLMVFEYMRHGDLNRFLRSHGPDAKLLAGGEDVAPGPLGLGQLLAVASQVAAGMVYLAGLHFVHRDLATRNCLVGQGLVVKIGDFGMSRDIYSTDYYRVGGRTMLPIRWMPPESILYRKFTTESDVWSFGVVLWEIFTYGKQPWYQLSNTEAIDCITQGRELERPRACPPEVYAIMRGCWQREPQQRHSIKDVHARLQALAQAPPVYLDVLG
Chain of Fibroblast growth factor receptor 1 (Homo sapiens) (P11362 22-822 limits assumed): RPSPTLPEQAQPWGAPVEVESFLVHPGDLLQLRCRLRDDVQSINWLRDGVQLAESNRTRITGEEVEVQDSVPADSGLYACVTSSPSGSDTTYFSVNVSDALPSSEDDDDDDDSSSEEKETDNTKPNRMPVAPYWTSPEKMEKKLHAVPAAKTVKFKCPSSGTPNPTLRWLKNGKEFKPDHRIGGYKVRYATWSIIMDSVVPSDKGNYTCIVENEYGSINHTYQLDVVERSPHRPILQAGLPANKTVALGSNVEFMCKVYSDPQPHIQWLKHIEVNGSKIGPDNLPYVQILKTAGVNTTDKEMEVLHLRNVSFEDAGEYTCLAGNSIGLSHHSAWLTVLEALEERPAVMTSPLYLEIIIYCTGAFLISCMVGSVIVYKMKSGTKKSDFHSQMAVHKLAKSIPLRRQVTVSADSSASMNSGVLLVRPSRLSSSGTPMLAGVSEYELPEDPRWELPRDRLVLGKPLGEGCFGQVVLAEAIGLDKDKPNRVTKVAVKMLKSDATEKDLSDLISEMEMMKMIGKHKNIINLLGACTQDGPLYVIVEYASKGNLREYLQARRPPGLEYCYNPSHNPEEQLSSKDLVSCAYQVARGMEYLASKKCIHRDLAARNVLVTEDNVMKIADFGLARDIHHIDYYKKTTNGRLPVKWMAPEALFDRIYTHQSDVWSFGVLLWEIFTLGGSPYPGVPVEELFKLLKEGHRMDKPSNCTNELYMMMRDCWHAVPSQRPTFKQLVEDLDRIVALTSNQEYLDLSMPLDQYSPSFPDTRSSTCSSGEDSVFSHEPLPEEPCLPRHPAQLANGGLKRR
Chain of Glycogen synthase kinase-3 alpha (Homo sapiens) (P49840 2-483 limits assumed): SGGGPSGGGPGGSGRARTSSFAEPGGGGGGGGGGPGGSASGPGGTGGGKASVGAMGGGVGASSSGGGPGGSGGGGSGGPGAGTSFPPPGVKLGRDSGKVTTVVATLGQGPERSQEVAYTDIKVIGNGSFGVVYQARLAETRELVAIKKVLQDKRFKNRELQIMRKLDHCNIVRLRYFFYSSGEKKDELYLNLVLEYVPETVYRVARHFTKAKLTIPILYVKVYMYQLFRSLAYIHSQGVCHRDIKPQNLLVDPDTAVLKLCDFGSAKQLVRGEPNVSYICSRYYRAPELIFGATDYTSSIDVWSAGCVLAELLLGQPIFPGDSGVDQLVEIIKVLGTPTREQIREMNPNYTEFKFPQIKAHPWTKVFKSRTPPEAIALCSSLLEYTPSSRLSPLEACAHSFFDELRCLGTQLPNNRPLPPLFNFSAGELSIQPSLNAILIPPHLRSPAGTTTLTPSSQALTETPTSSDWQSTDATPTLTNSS

SMILES: CCc1cc(NC(=O)Nc2ccc(-c3cnc(Nc4cc(N5CCN(CC)CC5)nc(C)n4)s3)cc2)no1
- GI50 (U-937): 1100 nM
- GI50 [1]: 38 nM
- inhibition [2]: 51%
- inhibition [3]: 14%
- inhibition [4]: 66%
- inhibition [5]: 10%
- inhibition [6]: 98%
- GI50 [7]: 70 nM
- inhibition [8]: 0%
- GI50 [9]: 4 nM
- GI50 [10]: 110 nM
- Vd [11]: 8.2 L/kg
- inhibition [12]: 80%
- Cmax [13]: 122 ng/mL
- IC50 [14]: 10 nM
- inhibition [15]: -7%
- inhibition [16]: 82%
- inhibition [17]: 15%
- inhibition [18]: 96%
- inhibition [19]: -7%
- inhibition [20]: 7%
- inhibition [21]: 2%
- inhibition [22]: 96%
- IC50 [23]: 10 nM
- Vd [24]: 21 L/kg
- inhibition in vivo at 10 mg/kg/day (animal or person): 68%
- TGI (MV4-11): Active
- clearance [25]: 82 mL/min/kg
- inhibition [26]: 41%

— ChEMBL document CHEMBL3593229, “Identification of a potent 5-phenyl-thiazol-2-ylamine-based inhibitor of FLT3 with activity against drug resistance-conferring point mutations” (Eur J Med Chem, 2015)
